Test results: publication PMC12621043, “Un-LOK-ing a New Approach for Conformational Selective Targeting of STK10 (LOK)” (ACS Medicinal Chemistry Letters, 2025)

How the values were obtained:
[1] = target: T1, DMPK1A (Homo sapiens, UniProt Q09013); assay: DSF Tm panel; type: binding; details: 10 μM compound
T1 construct: purchased in-house DSF kinase panel (SGC-style construct names; the trailing letter is the construct ID)
T1 sequence (Q09013 1-629): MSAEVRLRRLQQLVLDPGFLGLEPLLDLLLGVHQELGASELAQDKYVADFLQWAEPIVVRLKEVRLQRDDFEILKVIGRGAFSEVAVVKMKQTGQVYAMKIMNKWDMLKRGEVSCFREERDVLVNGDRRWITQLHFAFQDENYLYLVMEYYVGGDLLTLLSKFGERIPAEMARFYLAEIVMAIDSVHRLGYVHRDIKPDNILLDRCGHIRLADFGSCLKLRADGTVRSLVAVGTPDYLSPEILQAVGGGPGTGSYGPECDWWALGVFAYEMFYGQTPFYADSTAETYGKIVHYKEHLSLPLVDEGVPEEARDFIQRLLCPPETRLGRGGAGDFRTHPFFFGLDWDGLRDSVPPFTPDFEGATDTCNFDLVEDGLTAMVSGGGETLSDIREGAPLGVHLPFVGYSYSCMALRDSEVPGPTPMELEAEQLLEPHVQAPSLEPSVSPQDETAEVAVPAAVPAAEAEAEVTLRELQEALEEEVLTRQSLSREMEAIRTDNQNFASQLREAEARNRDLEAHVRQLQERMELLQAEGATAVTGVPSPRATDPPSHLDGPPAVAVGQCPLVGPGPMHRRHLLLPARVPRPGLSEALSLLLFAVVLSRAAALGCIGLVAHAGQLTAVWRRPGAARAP

[2] = target: T2, DCAMKL1A (Homo sapiens, UniProt O15075); assay: DSF Tm panel; type: binding; details: 10 μM compound
T2 construct: purchased in-house DSF kinase panel (SGC-style construct names; the trailing letter is the construct ID)
T2 sequence (O15075 372-649): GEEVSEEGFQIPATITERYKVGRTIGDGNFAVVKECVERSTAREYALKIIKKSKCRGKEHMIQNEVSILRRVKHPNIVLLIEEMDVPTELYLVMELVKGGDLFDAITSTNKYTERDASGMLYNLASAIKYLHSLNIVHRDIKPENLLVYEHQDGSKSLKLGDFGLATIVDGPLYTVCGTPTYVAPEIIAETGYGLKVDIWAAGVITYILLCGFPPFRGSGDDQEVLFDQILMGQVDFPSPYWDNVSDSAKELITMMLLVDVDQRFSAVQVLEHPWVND

[3] = target: T3, PKMYT1A (Homo sapiens, UniProt Q99640); assay: DSF Tm panel; type: binding; details: 10 μM compound
T3 construct: purchased in-house DSF kinase panel (SGC-style construct names; the trailing letter is the construct ID)
T3 sequence (Q99640 75-362): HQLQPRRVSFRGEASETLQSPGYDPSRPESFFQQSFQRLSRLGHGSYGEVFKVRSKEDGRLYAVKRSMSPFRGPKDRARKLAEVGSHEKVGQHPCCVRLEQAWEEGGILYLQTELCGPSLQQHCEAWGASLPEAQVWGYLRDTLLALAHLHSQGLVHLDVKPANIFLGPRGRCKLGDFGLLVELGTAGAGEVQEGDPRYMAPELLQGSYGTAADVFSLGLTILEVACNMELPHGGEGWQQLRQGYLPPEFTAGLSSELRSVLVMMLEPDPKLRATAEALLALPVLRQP

[4] = target: T4, OSR1A (Homo sapiens, UniProt O95747); assay: DSF Tm panel; type: binding; details: 10 μM compound
T4 construct: purchased in-house DSF kinase panel (SGC-style construct names; the trailing letter is the construct ID)
T4 sequence (O95747 17-291): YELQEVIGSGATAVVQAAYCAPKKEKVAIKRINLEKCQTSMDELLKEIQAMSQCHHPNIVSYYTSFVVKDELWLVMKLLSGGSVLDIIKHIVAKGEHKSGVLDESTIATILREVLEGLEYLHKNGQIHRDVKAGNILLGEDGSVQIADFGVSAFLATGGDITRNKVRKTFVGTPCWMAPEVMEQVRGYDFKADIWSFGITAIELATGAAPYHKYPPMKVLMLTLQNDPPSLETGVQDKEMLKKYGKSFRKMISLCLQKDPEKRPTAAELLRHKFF

[5] = target: T5, DAPK3 (DAPK3A) (Homo sapiens, UniProt O43293); assay: DSF Tm panel; type: binding; details: 10 μM compound
T5 construct: purchased in-house DSF kinase panel (SGC-style construct names; the trailing letter is the construct ID)
T5 sequence (O43293 whole entry): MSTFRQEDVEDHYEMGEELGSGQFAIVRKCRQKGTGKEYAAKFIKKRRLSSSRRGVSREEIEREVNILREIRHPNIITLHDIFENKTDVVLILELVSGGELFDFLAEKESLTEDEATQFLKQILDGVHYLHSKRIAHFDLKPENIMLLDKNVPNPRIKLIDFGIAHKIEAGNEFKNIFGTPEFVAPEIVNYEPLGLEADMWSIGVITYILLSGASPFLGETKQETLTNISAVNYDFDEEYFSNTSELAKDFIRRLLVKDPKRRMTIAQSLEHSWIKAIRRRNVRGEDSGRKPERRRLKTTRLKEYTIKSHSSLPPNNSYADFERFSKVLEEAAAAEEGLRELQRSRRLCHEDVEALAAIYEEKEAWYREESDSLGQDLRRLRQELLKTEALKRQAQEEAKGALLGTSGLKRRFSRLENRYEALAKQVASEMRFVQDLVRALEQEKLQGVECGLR

[6] = target: SLK (Homo sapiens, UniProt Q9H2G2); assay: NanoBRET target engagement assay; type: cell-based; design: has a greater impact on the full-length protein than on the kinase domains; host or cells: HEK293T (ATCC CRL-3216); details: HEK293T cells
Sequence of SLK (Q9H2G2 whole entry, the tested form may be a part): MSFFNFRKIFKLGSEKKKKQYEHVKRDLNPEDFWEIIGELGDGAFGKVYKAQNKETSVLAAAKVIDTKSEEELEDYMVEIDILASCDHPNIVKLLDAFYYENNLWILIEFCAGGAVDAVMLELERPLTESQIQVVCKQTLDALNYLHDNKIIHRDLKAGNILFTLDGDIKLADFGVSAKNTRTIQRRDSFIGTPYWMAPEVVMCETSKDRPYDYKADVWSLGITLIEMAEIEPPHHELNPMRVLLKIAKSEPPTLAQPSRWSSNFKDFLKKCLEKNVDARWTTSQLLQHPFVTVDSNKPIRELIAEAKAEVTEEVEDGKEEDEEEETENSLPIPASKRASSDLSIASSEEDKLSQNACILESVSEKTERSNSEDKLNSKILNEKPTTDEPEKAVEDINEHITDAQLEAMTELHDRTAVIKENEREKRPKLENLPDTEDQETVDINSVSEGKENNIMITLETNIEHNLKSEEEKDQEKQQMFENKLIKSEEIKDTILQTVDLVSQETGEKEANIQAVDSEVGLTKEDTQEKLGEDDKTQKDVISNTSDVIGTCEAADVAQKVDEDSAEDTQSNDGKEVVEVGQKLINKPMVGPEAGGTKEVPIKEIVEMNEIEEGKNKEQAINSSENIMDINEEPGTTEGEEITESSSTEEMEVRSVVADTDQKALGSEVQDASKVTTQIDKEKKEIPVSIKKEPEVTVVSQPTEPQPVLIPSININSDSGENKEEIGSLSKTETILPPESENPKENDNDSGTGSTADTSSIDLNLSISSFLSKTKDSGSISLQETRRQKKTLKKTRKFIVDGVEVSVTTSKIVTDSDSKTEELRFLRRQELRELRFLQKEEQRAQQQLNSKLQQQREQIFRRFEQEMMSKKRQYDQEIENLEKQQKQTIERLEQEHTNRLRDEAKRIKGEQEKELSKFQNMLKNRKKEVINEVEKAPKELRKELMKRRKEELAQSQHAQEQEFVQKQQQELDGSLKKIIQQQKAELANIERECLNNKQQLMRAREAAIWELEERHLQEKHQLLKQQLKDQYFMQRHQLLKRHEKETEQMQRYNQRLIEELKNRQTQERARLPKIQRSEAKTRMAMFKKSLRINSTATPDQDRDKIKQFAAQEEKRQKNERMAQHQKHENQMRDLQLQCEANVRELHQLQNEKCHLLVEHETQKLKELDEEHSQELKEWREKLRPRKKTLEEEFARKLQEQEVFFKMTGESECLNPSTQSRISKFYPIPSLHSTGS

[7] = target: T6, MST3A (Homo sapiens, UniProt Q9Y6E0); assay: DSF Tm panel; type: binding; details: 10 μM compound
T6 construct: purchased in-house DSF kinase panel (SGC-style construct names; the trailing letter is the construct ID)
T6 sequence (Q9Y6E0 whole entry): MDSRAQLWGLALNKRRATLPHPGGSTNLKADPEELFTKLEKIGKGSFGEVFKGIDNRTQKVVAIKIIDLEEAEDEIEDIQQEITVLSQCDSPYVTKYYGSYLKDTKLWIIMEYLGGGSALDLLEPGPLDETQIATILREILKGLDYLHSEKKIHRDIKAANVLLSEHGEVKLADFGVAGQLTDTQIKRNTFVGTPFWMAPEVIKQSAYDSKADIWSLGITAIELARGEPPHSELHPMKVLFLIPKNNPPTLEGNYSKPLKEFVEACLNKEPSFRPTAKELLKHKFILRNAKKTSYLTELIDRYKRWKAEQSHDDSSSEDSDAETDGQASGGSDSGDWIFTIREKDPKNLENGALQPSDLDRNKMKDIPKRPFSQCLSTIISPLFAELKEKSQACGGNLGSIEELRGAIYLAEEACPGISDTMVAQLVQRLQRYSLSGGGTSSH

[8] = target: T7, EPHA2 (EPHA2A) (Homo sapiens, UniProt P29317); assay: DSF Tm panel; type: binding; details: 10 μM compound
T7 construct: purchased in-house DSF kinase panel (SGC-style construct names; the trailing letter is the construct ID)
T7 sequence (P29317 596-900): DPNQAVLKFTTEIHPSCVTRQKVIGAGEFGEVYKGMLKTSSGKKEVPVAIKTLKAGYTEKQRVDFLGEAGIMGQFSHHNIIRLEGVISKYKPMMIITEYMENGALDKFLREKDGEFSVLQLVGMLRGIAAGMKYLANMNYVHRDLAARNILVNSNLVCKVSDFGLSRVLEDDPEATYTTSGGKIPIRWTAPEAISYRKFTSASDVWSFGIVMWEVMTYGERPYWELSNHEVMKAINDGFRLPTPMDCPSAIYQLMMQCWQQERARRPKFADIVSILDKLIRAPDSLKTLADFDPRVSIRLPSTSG

[9] = target: T8, CAMK2DA (Homo sapiens, UniProt Q13557); assay: DSF Tm panel; type: binding; details: 10 μM compound
T8 construct: purchased in-house DSF kinase panel (SGC-style construct names; the trailing letter is the construct ID)
T8 sequence (Q13557 11-309): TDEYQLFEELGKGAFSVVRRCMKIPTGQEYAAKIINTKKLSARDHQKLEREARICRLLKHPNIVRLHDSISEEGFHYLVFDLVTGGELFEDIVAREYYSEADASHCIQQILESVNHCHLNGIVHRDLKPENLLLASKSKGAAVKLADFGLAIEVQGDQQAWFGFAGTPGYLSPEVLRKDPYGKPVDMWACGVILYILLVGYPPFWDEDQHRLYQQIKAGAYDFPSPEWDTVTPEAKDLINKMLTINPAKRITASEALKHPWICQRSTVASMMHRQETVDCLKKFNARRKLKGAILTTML

[10] = target: T9, AAK1 (AAK1A) (Homo sapiens, UniProt Q2M2I8); assay: DSF Tm panel; type: binding; details: 10 μM compound
T9 construct: purchased in-house DSF kinase panel (SGC-style construct names; the trailing letter is the construct ID)
T9 sequence (Q2M2I8 27-365): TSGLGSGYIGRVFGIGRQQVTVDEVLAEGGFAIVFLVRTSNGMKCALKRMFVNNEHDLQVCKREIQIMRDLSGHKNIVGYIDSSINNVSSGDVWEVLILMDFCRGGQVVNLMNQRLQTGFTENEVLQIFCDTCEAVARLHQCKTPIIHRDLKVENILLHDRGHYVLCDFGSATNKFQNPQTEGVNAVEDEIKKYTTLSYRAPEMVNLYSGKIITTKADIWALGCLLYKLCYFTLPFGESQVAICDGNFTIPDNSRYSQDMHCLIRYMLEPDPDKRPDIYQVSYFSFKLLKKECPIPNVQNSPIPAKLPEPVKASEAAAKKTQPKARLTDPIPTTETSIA

[11] = target: T10, STK17BA (Homo sapiens, UniProt O94768); assay: DSF Tm panel; type: binding; details: 10 μM compound
T10 construct: purchased in-house DSF kinase panel (SGC-style construct names; the trailing letter is the construct ID)
T10 sequence (O94768 25-329): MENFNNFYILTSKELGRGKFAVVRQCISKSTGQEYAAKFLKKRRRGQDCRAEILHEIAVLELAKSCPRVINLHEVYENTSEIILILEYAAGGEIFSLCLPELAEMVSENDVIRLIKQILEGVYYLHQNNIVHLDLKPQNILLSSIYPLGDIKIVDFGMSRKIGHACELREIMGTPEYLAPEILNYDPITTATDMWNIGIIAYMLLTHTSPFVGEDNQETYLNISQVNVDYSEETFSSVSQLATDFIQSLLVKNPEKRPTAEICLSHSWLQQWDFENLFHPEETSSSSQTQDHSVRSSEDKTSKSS

[12] = target: T11, MAPK15A (MAPK15HSD) (Homo sapiens, UniProt Q8TD08); assay: DSF Tm panel; type: binding; details: 10 μM compound
T11 sequence (Q8TD08 13-304 limits assumed): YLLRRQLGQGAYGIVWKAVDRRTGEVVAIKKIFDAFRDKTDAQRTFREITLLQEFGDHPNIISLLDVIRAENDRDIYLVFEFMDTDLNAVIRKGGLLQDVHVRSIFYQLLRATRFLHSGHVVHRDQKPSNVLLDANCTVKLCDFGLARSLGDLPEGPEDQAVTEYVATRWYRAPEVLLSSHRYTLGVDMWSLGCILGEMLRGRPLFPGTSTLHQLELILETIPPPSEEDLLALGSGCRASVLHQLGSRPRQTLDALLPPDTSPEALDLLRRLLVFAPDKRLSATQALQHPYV

Row | Structure (SMILES) | ΔTm at 10 µM [1] [°C] | ΔTm at 10 µM [2] [°C] | ΔTm at 10 µM [3] [°C] | ΔTm at 10 µM [4] [°C] | ΔTm at 10 µM [5] [°C] | EC50 [6] [µM] | ΔTm at 10 µM [7] [°C] | ΔTm at 10 µM [8] [°C] | ΔTm at 10 µM [9] [°C] | ΔTm at 10 µM [10] [°C] | ΔTm at 10 µM [11] [°C] | ΔTm at 10 µM [12] [°C]
1 | COc1cccc(CNC(=O)Nc2ccc3cc2OCCOCCNc2ccn4ncc-3c4n2)c1 [compound 30] | 0.4 | 1.2 | 0 | 1.2 | 1.2 | > 50 | -5.1 | 0.4 | 2.3 | 6.3 | 1.8 | 2.3
2 | COc1ccc(CNC(=O)Nc2ccc3cc2OCCOCCNc2ccn4ncc-3c4n2)cc1F [compound 32] | 0.6 | 1.6 | 0.4 | 1.7 | 1.2 | > 50 | -6.4 | 0.3 | 2.7 | 6.3 | 3.4 | 2.5
3 | COc1cc(CNC(=O)Nc2ccc3cc2OCCOCCNc2ccn4ncc-3c4n2)ccc1F [compound 33] | 0.7 | 2.2 | 0.2 | 1.5 | 2.1 | > 50 | -5.3 | 0.5 | 2.4 | 6.4 | 2.7 | 3.3
4 | C[C@H](NC(=O)Nc1ccc2cc1OCCOCCNc1ccn3ncc-2c3n1)c1ccccc1 [compound 34] | 0 | 1.9 | -0.1 | 1.2 | 1.8 | > 50 | -7.8 | 0.3 | 2.2 | 5.9 | 2.7 | 2.1
5 | CN1CCN(C(=O)Nc2ccc3cc2OCCOCCNc2ccn4ncc-3c4n2)CC1 [compound 35] | 0.2 | 0.6 | 0.8 | 0 | 2.8 | > 50 | 0.4 | 0.6 | 0.5 | 7.7 | 3.4 | 2
